Data as given in US9549895B2, “Methods and compositions for preserving the viability of photoreceptor cells” (Massachusetts Eye and Ear Infirmary, priority 2004, dated 2017).
Several values for one entry are separate records, joined by “and”; a condition that tells them apart may be missing. Equal entries are not always repeated.

Columns and labels:
[1] = system: photoreceptor cell death (TUNEL-positive response in the ONL); assay: TUNEL analysis 72 hours after retinal detachment with subretinal TNF-alpha suppressing agents; format: in vivo, rat; details: subretinal 5 μl, 2 mg/mL, FIG. 12
Description: Retinal detachments were created only in the right eye of each animal, and the left eye served as a control. Following retinal detachment, various treatments were administered subretinally using a Hamilton syringe equipped with a 32-gauge needle. The tip of needle was introduced through a sclerotomy and retinal hole into the subretinal space, and 5 μl of solution, either normal goat serum (0.1 mg/mL), goat anti-TNF-alpha antibody (0.1 mg/mL), or etanercept (2 mg/mL), was injected over 3 minutes. Seventy-two hours after retinal detachment, the eyes were subjected to TUNEL analysis.

[2] = system: photoreceptor cell death (TUNEL-positive cells in the ONL); assay: TUNEL staining 24 hours after retinal detachment with subretinal administration of cytokines; format: in vivo, rat; details: subretinal 5 μl of 0.1 μg/μl, PBS control 15.3±5.4, n=7
Description: Retinal detachment was induced by subretinal injection of sodium hyaluronate. Retinal tissues were collected at various time points (1, 3, 6, 24, 72 hours) after inducing retinal detachment. Neural retina was homogenized, and mRNA expression was quantified by QPCR. To identify the cellular sources of expressed genes, samples from various retinal layers were obtained using LCM. Immunohistochemistry and Enzyme Linked-Immuno-Sorbent Assay (ELISA) were performed to show expressional changes of proteins. TUNEL staining was used in order to assess photoreceptor death induced by retinal detachment with or without subretinal administration of cytokines.
Fifty-five adult male Brown Norway rats (200-300 g, Charles River, Boston, Mass.) were used in this study. Rats were anesthetized with a 1:1 mixture of ketamine (100 mg/mL) and xylazine (20 mg/mL; both from Phoenix Pharmaceutical, St. Joseph, Mo.). Pupils were dilated with a topically applied mixture of phenylephrine (5.0%) and tropicamide (0.8%; Massachusetts Eye and Ear Infirmary internal formulary preparation). A sclerotomy was created approximately 2 mm posterior to the limbus with a 22-gauge needle. Care was taken not to damage the lens during creation of the sclerotomy. A Glaser subretinal injector (20-gauge shaft with a 32-gauge tip, BD Biosciences, San Jose, Calif.) connected to a syringe filled with 10 mg/mL Healon® sodium hyaluronate (Pharmacia and Upjohn Co., Kalamazoo, Mich.) was then introduced into the vitreous cavity. […]
Subretinal administration of select cytokines was performed following the creation of retinal detachment. […] TUNEL-positive cells were counted in a masked fashion, and standard error was determined.
To investigate effects of cytokines on photoreceptor cell death induced by retinal detachment, TUNEL staining was performed 24 hours after retinal detachment with subretinal administration of PBS, TNF-alpha (0.1 μg/μl), IL-1 beta (0.1 μg/μl), or MCP-1 (0.1 μg/μl). […] In the control condition with PBS, TUNEL-positive cells were detected in the ONL 24 hours after retinal detachment (15.3±5.4 cells/field, n=7). […]

caspase 4 = target: T1, caspase 4 (Homo sapiens, UniProt P49662); details: cited from earlier work
T1 sequence (P49662 81-270 limits assumed): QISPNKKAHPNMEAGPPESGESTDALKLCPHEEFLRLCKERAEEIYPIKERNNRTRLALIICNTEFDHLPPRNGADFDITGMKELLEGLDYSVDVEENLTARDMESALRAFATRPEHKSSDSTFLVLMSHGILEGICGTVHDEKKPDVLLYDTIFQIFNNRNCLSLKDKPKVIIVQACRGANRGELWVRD
T1 sequence (P49662 290-377 limits assumed): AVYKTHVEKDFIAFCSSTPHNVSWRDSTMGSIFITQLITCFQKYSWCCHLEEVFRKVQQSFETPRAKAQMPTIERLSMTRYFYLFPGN

caspase 1 = target: T2, caspase 1 (Homo sapiens, UniProt P29466); details: cited from earlier work
T2 sequence (P29466 120-297 limits assumed): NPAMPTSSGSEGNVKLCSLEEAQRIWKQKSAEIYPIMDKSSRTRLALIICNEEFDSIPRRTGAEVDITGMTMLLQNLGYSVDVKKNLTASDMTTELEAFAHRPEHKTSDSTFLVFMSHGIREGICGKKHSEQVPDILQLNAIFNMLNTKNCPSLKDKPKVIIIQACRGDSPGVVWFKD
T2 sequence (P29466 317-404 limits assumed): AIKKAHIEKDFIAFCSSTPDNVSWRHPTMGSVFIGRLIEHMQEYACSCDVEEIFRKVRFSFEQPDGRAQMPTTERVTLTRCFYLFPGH

caspase 3 = target: T3, caspase 3 (Homo sapiens, UniProt P42574); details: cited from earlier work
T3 sequence (P42574 29-175 limits assumed): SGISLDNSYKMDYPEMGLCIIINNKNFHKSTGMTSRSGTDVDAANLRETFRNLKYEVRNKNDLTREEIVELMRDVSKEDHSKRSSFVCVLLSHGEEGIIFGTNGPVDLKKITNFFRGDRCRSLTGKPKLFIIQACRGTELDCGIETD
T3 sequence (P42574 176-277 limits assumed): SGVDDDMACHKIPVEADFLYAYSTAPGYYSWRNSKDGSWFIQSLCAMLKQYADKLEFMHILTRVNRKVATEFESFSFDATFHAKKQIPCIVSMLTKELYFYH

caspase 7 = target: T4, caspase 7 (Homo sapiens, UniProt P55210); details: cited from earlier work
T4 sequence (P55210 24-198 limits assumed): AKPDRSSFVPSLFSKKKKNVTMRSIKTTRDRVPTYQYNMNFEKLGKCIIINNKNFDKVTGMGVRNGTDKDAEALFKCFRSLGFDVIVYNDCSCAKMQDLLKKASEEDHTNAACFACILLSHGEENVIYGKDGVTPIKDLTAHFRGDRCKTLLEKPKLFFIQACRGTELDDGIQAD
T4 sequence (P55210 207-303 limits assumed): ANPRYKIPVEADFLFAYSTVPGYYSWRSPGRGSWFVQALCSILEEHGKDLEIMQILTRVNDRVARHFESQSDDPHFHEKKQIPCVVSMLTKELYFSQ

[3] = system: photoreceptor cell death (TUNEL-positive cells); assay: TUNEL staining 72 hours after retinal detachment with intravitreal or subretinal PEDF; format: in vivo, rat; details: for difference in number of TUNEL-positive cells, intravitreally-injected control eyes versus intravitreally-injected PEDF eyes: intravitreal; for Number of TUNEL-Positive Cells, Mean: 72 hours
Description: In these experiments, retinal detachments were created in Brown Norway rats by injecting […] into the subretinal space using a transvitreous approach. Treatment with PEDF (BioProducts MD, Middletown, Md.) or control vehicle was administered immediately after detachment. In an initial set of experiments, the treatment groups included: intravitreal administration of 2.5 μg PEDF (n=6); intravitreal administration of 5.0 μg PEDF (n=9); subretinal administration of 2.5 μg PEDF (n=6); subretinal administration of 5.0 μg PEDF (n=9); intravitreal administration of control vehicle (n=3); and subretinal administration of control vehicle (n=3). In a second set of experiments, the treatment groups included: intravitreal administration of 5.0 μg PEDF (n=15); subretinal administration of 5.0 μg PEDF (n=15); intravitreal administration of control vehicle (n=9); and subretinal administration of control vehicle (n=9).
(§1) For both sets of experiments, all eyes were enucleated 72 hours after retinal detachment and embedded in paraffin. Four micron sections through the area of detachment, including the optic nerve, were obtained. Light microscopy was performed at 3× and at 32× magnification using hematoxylin-eosin staining. TUNEL staining was performed using a commercial kit (Oncogene, San Diego, Calif.) and viewed at 20× magnification using green fluorescein staining for TUNEL and blue DAPI nuclear staining. TUNEL-positive cells were counted per millimeter of tissue by a masked observer. The mean number of TUNEL-positive cells per millimeter of tissue was determined by averaging the number of TUNEL-positive cells per mm of tissue in three sections of each eye. Additionally, a realtime polymerase chain reaction (PCR) was performed for a variety of cytokines, including bFGF, TNF-alpha, and IL-1 beta, on extracted retina from normal eyes (n=6), untreated eyes with retinal detachment (n=6), PEDF-treated eyes with retinal detachment (n=6) and PBS-treated eyes with retinal detachment (n=6).

[4] = system: mRNA levels of bFGF, TNF-alpha, IL-1 beta; assay: Realtime PCR of cytokine mRNA in detached retina after intravitreal PEDF; format: in vivo, rat; details: 5.0 μg intravitreal injection just after detachment versus PBS control; FIG. 16
Description: as §1
A realtime PCR was performed for a variety of cytokines, including bFGF, PEDF, TNF-alpha, IL-1 beta, HGF, CNTF, TGF beta, and IGF 1. The amount of each mRNA from each of six eyes treated with a 5.0 μg intravitreal injection of PEDF just after detachment was averaged. […]

For etanercept, the “TUNEL-positive response in the ONL as compared to controls” value [1] was “significantly decreased”.

For TNF-alpha, the “number of TUNEL-positive cells in the ONL” value (shortened to “number … in the ONL”) [2] was “did not change significantly”.

In the case of 2-Val-Ala-Asp-fluoromethylketone, the caspase inhibition (caspase 4) is given as “inhibits”, the caspase inhibition (caspase 1) is given as “inhibits” and the caspase inhibition (caspase 3) is given as “inhibits”. For the same molecule, the caspase inhibition (caspase 7) was “inhibits”.

In the case of “MCP-1: rat recombinant MCP-1 administered subretinally”, the “number … in the ONL” value [2] is reported as 67.7±46.5 cells/field.

For Ac-Tyr-Val-Ala-Asp-aldehyde, the Ki (caspase 4) is given as 10 nM, the Ki (caspase 1) is given as 10 nM and the Ki (caspase 3) is given as at least 50000 nM. For the same molecule, the Ki (caspase 7) was at least 50000 nM.

B1: IL-1 beta: rat recombinant IL-1 beta administered subretinally (protein, UniProt Q63264 117-268, looked up)
Interleukin-1 beta: VPIRQLHCRLRDEQQKCLVLSDPCELKALHLNGQNISQQVVFSMSFVQGETSNDKIPVALGLKGLNLYLSCVMKDGTPTLQLESVDPKQYPKKKMEKRFVFNKIEVKTKVEFESAQFPNWYISTSQAEHRPVFLGNSNGRDIVDFTMEPVSS
With B1 the “number … in the ONL” value [2] was “did not change significantly”.

B2: PEDF: pigment epithelium-derived factor (BioProducts MD), neurotrophic factor (protein, UniProt P36955 20-418, looked up)
Pigment epithelium-derived …: QNPASPPEEGSPDPDSTGALVEEEDPFFKVPVNKLAAAVSNFGYDLYRVRSSTSPTTNVLLSPLSVATALSALSLGAEQRTESIIHRALYYDLISSPDIHGTYKELLDTVTAPQKNLKSASRIVFEKKLRIKSSFVAPLEKSYGTRPRVLTGNPRLDLQEINNWVQAQMKGKLARSTKEIPDEISILLLGVAHFKGQWVTKFDSRKTSLEDFYLDEERTVRVPMMSDPKAVLRYGLDSDLSCKIAQLPLTGSMSIIFFLPLKVTQNLTLIEESLTSEFIHDIDRELKTVQAVLTVPKLKLSYEGEVTKSLQEMKLQSLFDSPDFSKITGKPIKLTQVEHRAGFEWNEDGAGTTPSPGLQPAHLTFPLDYHLNQPFIFVLRDTDTGALLFIGKILDPRGP
In the case of B2, the “difference in number of TUNEL-positive cells, intravitreally-injected control eyes versus intravitreally-injected PEDF eyes” value ([3]; initial set of experiments) is reported as “no statistically significant difference”, the “Number of TUNEL-Positive Cells, Mean” value ([3]; initial set of experiments, intravitreal 2.5 μg, control 23.3) is reported as 16.9 TUNEL-positive cells per millimeter of tissue and the “Number of TUNEL-Positive Cells, Mean” value ([3]; initial set of experiments, intravitreal 5.0 μg, control 23.3) is reported as 28.4 TUNEL-positive cells per millimeter of tissue. The “Number of TUNEL-Positive Cells, Mean” value ([3]; initial set of experiments, subretinal 2.5 μg, control 63.8) was 17.6±15.5 TUNEL-positive cells per millimeter of tissue and 17.7 TUNEL-positive cells per millimeter of tissue, the “Number of TUNEL-Positive Cells, Mean” value ([3]; initial set of experiments, subretinal 5.0 μg, control 63.8) was 30.4±18.1 TUNEL-positive cells per millimeter of tissue and 30.4 TUNEL-positive cells per millimeter of tissue and the “effect on photoreceptor cell death following retinal detachment as measured using TUNEL” value ([3]; larger sample set, either subretinally or intravitreally) was “no significant effect”. For the same molecule, the “difference in number of TUNEL-positive cells, intravitreally-injected control eyes versus intravitreally-injected PEDF eyes” value ([3]; second set of experiments) was “no statistically significant difference”, the “Number of TUNEL-Positive Cells, Mean” value ([3]; second set of experiments, intravitreal 5.0 μg, control 30.2) was 30.3 TUNEL-positive cells per millimeter of tissue and the “effect on mRNA levels of bFGF, TNF-alpha, IL-1 beta, or any of the cytokines measured” value [4] was “does not significantly alter”.
